Laboratory results reported in patent publication US10047050B2, “3,4-di-substituted pyridine compound, methods of using and compositions comprising the same” (ARDEA BIOSCIENCES, INC., priority 2011, dated 2018).
“And” between values parts separate entries of the source, which are not always exact repeats. Equal values may be shown once.

Tested on: serum uric acid
Assay: Single-dose Phase I clinical trial, serum uric acid (sUA) 0-72 hours post-dose
Assay type: in vivo, human
Conditions: for Absolute sUA concentration, Mean (3-8) / % sUA reduction (from baseline), Mean (3-8) / % sUA change (from baseline), Mean (3-8): mean of subjects 3-8; for % sUA reduction (from baseline) / % sUA change (from baseline): individual subjects 3-8
Procedure: A Phase 1, Randomized, Double-Blind, Placebo-Controlled Study to Evaluate Safety, Tolerability, Pharmacokinetics and Preliminary Food Effect of Single Doses of a URAT1 Inhibitor, in Healthy Adult Male Volunteers.
To assess safety, tolerability, pharmacokinetics and uricosuric effects after oral administration as single doses of a tablet formulation and the effect of food on bioavailability.
Subjects receive a single, oral dose of active or placebo, at the following doses:
Group 4: 20 mg (fasted) [sentinel dosing];
48 subjects in 6 dose groups, 8 subjects/group, are randomized 3:1 to receive active (6/group) or placebo (2/group). All study procedures are the same regardless of whether subject receives active or placebo. The total duration of subject participation, including screening period, is ˜2-4 weeks, and the total volume of blood collected from each subject during the entire study <500 mL, (less than typically collected during a volunteer blood donation).
5 mg and 20 mg, active and placebo, tablets packaged in 35 count HDPE bottles, stored at controlled room temperature (15-30° C.). Placebo tablets are designed to match the active tablets—identical size, form, taste, and color, and containing the same excipients. 2 mg was dosed as an oral solution.
Subjects dosed on the morning of Day 1 with ˜240 mL of room temp water.
Fasted: subjects are dosed after overnight fast >10 hours and remain fasted until >4 hours post-dose.
Fed: subjects fast overnight for >10 hours, then are dosed 30 mins after completing standard moderate fat breakfast (no high fructose corn syrup).
Serum samples are collected at:
PD samples are frozen (−20° C.) and stored; all samples from a given subject assayed in a single analytical run.

[1] = Group 3, 5 mg single oral dose, fed, 54 h post-dose
[2] = Group 3, 5 mg single oral dose, fed, 60 h post-dose
[3] = Group 3, 5 mg single oral dose, fed, 72 h post-dose
[4] = Group 4, 20 mg single oral dose, fasted, 0 h (baseline)
[5] = Group 4, 20 mg single oral dose, fasted, 6 h post-dose
[6] = Group 4, 20 mg single oral dose, fasted, 12 h post-dose
[7] = Group 4, 20 mg single oral dose, fasted, 24 h post-dose
[8] = Group 4, 20 mg single oral dose, fasted, 30 h post-dose
[9] = Group 4, 20 mg single oral dose, fasted, 36 h post-dose
[10] = Group 4, 20 mg single oral dose, fasted, 48 h post-dose
[11] = Group 4, 20 mg single oral dose, fasted, 54 h post-dose
[12] = Group 4, 20 mg single oral dose, fasted, 60 h post-dose
[13] = Group 4, 20 mg single oral dose, fasted, 72 h post-dose
[14] = Group 5, 20 mg single oral dose, fed, 0 h (baseline)
[15] = Group 5, 20 mg single oral dose, fed, 6 h post-dose
[16] = Group 5, 20 mg single oral dose, fed, 12 h post-dose
[17] = Group 5, 20 mg single oral dose, fed, 24 h post-dose
[18] = Group 5, 20 mg single oral dose, fed, 30 h post-dose
[19] = Group 5, 20 mg single oral dose, fed, 36 h post-dose
[20] = Group 5, 20 mg single oral dose, fed, 48 h post-dose
[21] = Group 5, 20 mg single oral dose, fed, 54 h post-dose
[22] = Group 5, 20 mg single oral dose, fed, 60 h post-dose
[23] = Group 5, 20 mg single oral dose, fed, 72 h post-dose
[24] = Group 6, 40 mg single oral dose, fasted, 0 h (baseline)
[25] = Group 6, 40 mg single oral dose, fasted, 6 h post-dose
[26] = Group 6, 40 mg single oral dose, fasted, 12 h post-dose
[27] = Group 6, 40 mg single oral dose, fasted, 24 h post-dose
[28] = Group 6, 40 mg single oral dose, fasted, 30 h post-dose
[29] = Group 6, 40 mg single oral dose, fasted, 36 h post-dose
[30] = Group 6, 40 mg single oral dose, fasted, 48 h post-dose
[31] = Group 6, 40 mg single oral dose, fasted, 54 h post-dose
[32] = Group 6, 40 mg single oral dose, fasted, 60 h post-dose
[33] = Group 6, 40 mg single oral dose, fasted, 72 h post-dose

Q: How did the “Absolute sUA concentration, Mean (3-8)” value (Group 3, 5 mg single oral dose, fed, 48 h post-dose) turn out when `CC(C)(Sc1ccncc1-c1ccc(C#N)c2ccccc12)C(=O)O` [2-((3-(4-cyanonaphthalen-1-yl)pyridin-4-yl)thio)-2-methylpropanoic acid] was run?
A: Its value is 4.5 mg/dL.

Q: What about the “% sUA reduction (from baseline)” value [1] of the same compound?
A: Its value is −37.7% and −47.0% and −27.7% and −38.3% and −21.1% and −32.5%.

Q: And the “% sUA reduction (from baseline), Mean (3-8)” value (“% sUA reduction … (3-8)” for short) [1]?
A: The value was −34.1%.

Q: What about the “Absolute sUA concentration, Mean (3-8)” value [1] of the same compound?
A: The value was 3.9 mg/dL.

Q: And the “% sUA reduction (from baseline)” value [2]?
A: The value was −27.5% and −28.8% and −30.8% and −20.0% and −24.6% and −35.0%.

Q: What about the “% sUA reduction … (3-8)” value [2] of the same compound?
A: The value was −27.8%.

Q: And the “Absolute sUA concentration, Mean (3-8)” value [2]?
A: Its value is 4.3 mg/dL.

Q: And the “% sUA reduction (from baseline)” value [3]?
A: Its value is −14.5% and −18.2% and −20.0% and −11.7% and −15.8% and −25.0%.

Q: And the “% sUA reduction … (3-8)” value [3]?
A: Its value is −17.5%.

Q: What about the “Absolute sUA concentration, Mean (3-8)” value [3] of the same compound?
A: The value was 4.9 mg/dL.

Q: What about the “% sUA reduction … (3-8)” value [4] of the same compound?
A: Its value is 0%.

Q: And the “Absolute sUA concentration, Mean (3-8)” value [4]?
A: The value was 6.8 mg/dL.

Q: And the “% sUA reduction … (3-8)” value [5]?
A: Its value is −37.1%.

Q: What about the “Absolute sUA concentration, Mean (3-8)” value [5] of the same compound?
A: The value was 4.3 mg/dL.

Q: And the “% sUA reduction … (3-8)” value [6]?
A: The value was −41.2%.

Q: And the “Absolute sUA concentration, Mean (3-8)” value [6]?
A: Its value is 4.0 mg/dL.

Q: And the “% sUA reduction … (3-8)” value [7]?
A: Its value is −43.1%.

Q: And the “Absolute sUA concentration, Mean (3-8)” value [7]?
A: Its value is 3.8 mg/dL.

Q: What about the “% sUA reduction … (3-8)” value [8] of the same compound?
A: The value was −47.4%.

Q: And the “Absolute sUA concentration, Mean (3-8)” value [8]?
A: The value was 3.6 mg/dL.

Q: And the “% sUA reduction … (3-8)” value [9]?
A: The value was −48.4%.

Q: What about the “Absolute sUA concentration, Mean (3-8)” value [9] of the same compound?
A: The value was 3.5 mg/dL.

Q: And the “% sUA reduction … (3-8)” value [10]?
A: The value was −39.0%.

Q: What about the “Absolute sUA concentration, Mean (3-8)” value [10] of the same compound?
A: The value was 4.1 mg/dL.

Q: What about the “% sUA reduction … (3-8)” value [11] of the same compound?
A: The value was −37.6%.

Q: What about the “Absolute sUA concentration, Mean (3-8)” value [11] of the same compound?
A: Its value is 4.2 mg/dL.

Q: And the “% sUA reduction … (3-8)” value [12]?
A: Its value is −37.6%.

Q: And the “Absolute sUA concentration, Mean (3-8)” value [12]?
A: The value was 4.2 mg/dL.

Q: What about the “% sUA reduction … (3-8)” value [13] of the same compound?
A: Its value is −21.5%.

Q: And the “Absolute sUA concentration, Mean (3-8)” value [13]?
A: Its value is 5.3 mg/dL.

Q: What about the “% sUA reduction … (3-8)” value [14] of the same compound?
A: Its value is 0%.

Q: What about the “Absolute sUA concentration, Mean (3-8)” value [14] of the same compound?
A: The value was 7.1 mg/dL.

Q: And the “% sUA reduction … (3-8)” value [15]?
A: The value was −44.6%.

Q: What about the “Absolute sUA concentration, Mean (3-8)” value [15] of the same compound?
A: The value was 3.9 mg/dL.

Q: And the “% sUA reduction … (3-8)” value [16]?
A: Its value is −56.5%.

Q: And the “Absolute sUA concentration, Mean (3-8)” value [16]?
A: The value was 3.1 mg/dL.

Q: And the “% sUA reduction … (3-8)” value [17]?
A: Its value is −46.1%.

Q: What about the “Absolute sUA concentration, Mean (3-8)” value [17] of the same compound?
A: The value was 3.8 mg/dL.

Q: What about the “% sUA reduction … (3-8)” value [18] of the same compound?
A: The value was −48%.

Q: What about the “Absolute sUA concentration, Mean (3-8)” value [18] of the same compound?
A: The value was 3.7 mg/dL.

Q: What about the “% sUA reduction … (3-8)” value [19] of the same compound?
A: The value was −49.9%.

Q: What about the “Absolute sUA concentration, Mean (3-8)” value [19] of the same compound?
A: The value was 3.5 mg/dL.

Q: What about the “% sUA reduction … (3-8)” value [20] of the same compound?
A: The value was −37.6%.

Q: And the “Absolute sUA concentration, Mean (3-8)” value [20]?
A: Its value is 4.4 mg/dL.

Q: And the “% sUA reduction … (3-8)” value [21]?
A: The value was −38.8%.

Q: What about the “Absolute sUA concentration, Mean (3-8)” value [21] of the same compound?
A: Its value is 4.3 mg/dL.

Q: And the “% sUA reduction … (3-8)” value [22]?
A: Its value is −40.3%.

Q: And the “Absolute sUA concentration, Mean (3-8)” value [22]?
A: The value was 4.2 mg/dL.

Q: And the “% sUA reduction … (3-8)” value [23]?
A: Its value is −28.6%.

Q: And the “Absolute sUA concentration, Mean (3-8)” value [23]?
A: The value was 5.0 mg/dL.

Q: And the “% sUA change (from baseline)” value [24]?
A: Its value is 0%.

Q: And the “% sUA change (from baseline), Mean (3-8)” value [24]?
A: Its value is 0%.

Q: And the “Absolute sUA concentration, Mean (3-8)” value [24]?
A: Its value is 6.6 mg/dL.

Q: And the “% sUA change (from baseline)” value [25]?
A: Its value is −23.7% and −51.4% and −38.2% and −54.1% and −49.2% and −42.1%.

Q: And the “% sUA change (from baseline), Mean (3-8)” value [25]?
A: Its value is −43.1%.

Q: And the “Absolute sUA concentration, Mean (3-8)” value [25]?
A: Its value is 3.8 mg/dL.

Q: What about the “% sUA change (from baseline)” value [26] of the same compound?
A: Its value is −40.8% and −68.9% and −52.9% and −63.9%.

Q: And the “% sUA change (from baseline), Mean (3-8)” value [26]?
A: The value was −59.3%.

Q: And the “Absolute sUA concentration, Mean (3-8)” value [26]?
A: The value was 2.7 mg/dL.

Q: What about the “% sUA change (from baseline), Mean (3-8)” value [27] of the same compound?
A: The value was −57.6%.

Q: And the “Absolute sUA concentration, Mean (3-8)” value [27]?
A: Its value is 2.8 mg/dL.

Q: And the “% sUA change (from baseline), Mean (3-8)” value [28]?
A: The value was −60.6%.

Q: And the “Absolute sUA concentration, Mean (3-8)” value [28]?
A: Its value is 2.6 mg/dL.

Q: And the “% sUA change (from baseline), Mean (3-8)” value [29]?
A: The value was −61.4%.

Q: What about the “Absolute sUA concentration, Mean (3-8)” value [29] of the same compound?
A: The value was 2.5 mg/dL.

Q: And the “% sUA change (from baseline)” value [30]?
A: The value was −53.9% and −50.0% and −48.5% and −37.7% and −55.9% and −45.6%.

Q: What about the “% sUA change (from baseline), Mean (3-8)” value [30] of the same compound?
A: The value was −48.6%.

Q: What about the “Absolute sUA concentration, Mean (3-8)” value [30] of the same compound?
A: Its value is 3.4 mg/dL.

Q: What about the “% sUA change (from baseline)” value [31] of the same compound?
A: The value was −56.6% and −47.3% and −50.0% and −39.3% and −54.2% and −40.4%.

Q: And the “% sUA change (from baseline), Mean (3-8)” value [31]?
A: Its value is −48.0%.

Q: What about the “Absolute sUA concentration, Mean (3-8)” value [31] of the same compound?
A: The value was 3.4 mg/dL.

Q: And the “% sUA change (from baseline)” value [32]?
A: Its value is −56.6% and −50.0% and −48.5% and −39.3% and −52.5% and −36.8%.

Q: And the “% sUA change (from baseline), Mean (3-8)” value [32]?
A: The value was −47.3%.

Q: And the “Absolute sUA concentration, Mean (3-8)” value [32]?
A: Its value is 3.4 mg/dL.

Q: What about the “% sUA change (from baseline)” value [33] of the same compound?
A: Its value is −40.8% and −31.1% and −33.8% and −19.7% and −30.5% and −19.3%.

Q: And the “% sUA change (from baseline), Mean (3-8)” value [33]?
A: The value was −29.2%.

Q: And the “Absolute sUA concentration, Mean (3-8)” value [33]?
A: Its value is 4.6 mg/dL.
